Experimental data: patent publication US4798898A, “Antitussive and mucus regulating 2-substituted thiazolidines” (Boehringer Biochemia Robin S.p.A., priority 1984, dated 1989)
Where a name gives a salt, the structure may show the parent alone.

Experiments:
[1] = tested on: cough induced by citric acid aerosol in guinea pigs; assay: Guinea pig cough test (citric acid aerosol, Charlier procedure); type: in vivo; conditions: Cavia porcellus, inhaled or nasal, antitussive test not given
[2] = tested on: cough induced by electric stimulation in dogs; assay: Dog cough test (cough induced by electric stimulation, Stefko procedure); type: in vivo, conscious mongrel dogs; conditions: for duration of action (antitussive): test not named; for duration of action: in words
Procedure: (§1) The techniques described by Charlier et al. (Arch. Int. Pharmacodyn. 134, 306, 1961) and by Stefko et al. (J. Pharm. Exp. Therap., 108, 217, 1953), adapted with minor modifications, are used to investigate the antitussive properties of the compounds of the invention. Codeine phosphate is used as positive reference compound.
In the Stefko procedure, conscious mongrel dogs (15±3 kg body weight) are used; the compounds of the invention are tested for their ability to inhibit cough induced by electric stimulation.
Under general anesthesia, two insulated nichrome wires (0.4 mm diameter) are surgically implanted into the submucosa of the trachea.
About two days later, the dogs are placed in a sling and the exteriorized electrodes are connected to an electric stimulating device (such as Grass S 48 Mod.).
The stimulation parameters such as: delay 0.01 msec, duration 1 msec, frequency 30 Hz, are used.
An electrical stimulus of 1 sec is applied 10 times at 5 sec intervals in order to determine the minimum voltage necessary for eliciting reproducible cough responses. Then, tussive responses to the electrical stimuli are registered at 15, 30, 60, 90, 120, 150, 180, 240, 300 and 360 minutes after oral administration of the compounds of the invention.
The tussive responses are scored as follows: 1: no response; 2: sigh or exaggerated expiration; 3: marked cough; 4: one marked cough and one exaggerated expiration: 5: two marked coughs.
Six dogs are employed for each determination and the mean activity is calculated.
The inhibition percent of the cough response and the duration of activity are compared with codeine.

[3] = tested on: pathological sputum of bronchitic rabbits; assay: Mucus regulating properties in bronchitic rabbits (sputum AUC as % compared to bronchitic controls); type: in vivo, male New Zealand white rabbits; conditions: for mucus regulating activity (in words): rabbit, in vivo
Procedure: The animals are submitted to inhalation of a 5% H2 SO3 aqueous solution by aerosol (exposition of 3 hours a day for 3 alternate days), to induce a chronic bronchial inflammatory disease which causes a production of pathological sputum in the bronchial tree.
Aim of the experiments is to evaluate modifications of selective parameters such as dry weight of the sputum, viscosity, content in proteins, phospholipids, galactose, sialic acid and fucose, induced in this pathological sputum by pharmacological treatment with the compounds of the invention.
To this purpose, the sputum produced in the bronchial tree is collected daily, through a "T" shaped glass cannula, inserted in the trachea, before and after oral twice a day (9.00 a.m. and 4.00 p.m.) treatment with one of the compounds of the invention.
The schedule treatment procedure is shown in the following Scheme 1: [drawing 21] where 0 indicates the day of implantation of the tracheal cannula; -7-5-3 indicate the days of H2 SO3 treatment (H); 1, 2, 3, 4 indicate the days of oral administration of the compounds of the invention (T) and the time of mucus collection (M).
The mucus collected in day 1 in the morning is considered as a blank; 7 indicates the day of the animal sacrifice after the mucous collection.
The sputum samples are stored in the freezer (-20° C.) until the investigation of biological and rheological parameters is carried out.
The samples are investigated for relative viscosity, measured at 37° C. with a Brookfield viscometer (model LT VD) equipped with a 1,565° cone-plate, and aliquoted for biochemical analysis of protein, phospholipids, galactose, sialic acid and fucose contents. Dry weight of the mucus is also determined. For each parameter, cumulative data are referred to a seven days period after the beginning of the treatment and they are extrapolated using the AUC method (area under curve) calculated by the trapazoidal rule. Finally the data are compared with data obtained from controls (vehicle treatment), non bronchitic rabbits (vehicle treatment) and positive controls bronchitic rabbits treated with 0.153M […].

[4] = tested on: cough induced by citric acid aerosol in guinea pigs; assay: Guinea pig cough test (citric acid aerosol, Charlier procedure); type: in vivo; conditions: for ED50: guinea pig cough test, i.p., 60 minutes after treatment, 60 min
Procedure: as §1
According to the Charlier procedure guinea pigs are exposed to a citric acid aerosol (7.5%) and cough is recorded 60 minutes after the antitussive treatment by i.p. route. Male animals of 300-400 g pigs are placed in perspex box (20×30×30 cm) connected to an aerosol compressor; the animals are subjected to a citric acid saturated atmosphere, 60 minutes after the i.p. injection of a compound of the invention (0.1 and 0.3M solutions; 1 ml/kg).
The total number of cough strokes and the delay of the first cough are recorded during the first five minutes.
Five guinea pigs are used for each dose level and the results are compared with controls (vehicle treatment) and codeine phosphate 0.07M solution (standard treatment).
ED50 and the corresponding delay of first cough stroke are calculated.
The data obtained by i.p. administration are confirmed by oral administration.

[5] = tested on: bronchospasm induced by i.v. histamine; assay: Resolution of bronchospasm induced by i.v. histamine in anesthetized guinea-pigs (Konzett-Ressler test); type: in vivo; conditions: intrajugular administration; more active than aminophylline
[6] = tested on: guinea pig trachea smooth muscle strips; assay: In vitro relaxation of guinea pig trachea smooth muscle strips contracted by methacoline
[7] = Table 2, oral, equimolecular amounts to S-carboxymethyl cysteine

## C#CCOc1ccccc1OCC1SCCN1C(=O)CCNCCNCCO (stereo not drawn)
[1]
  ED50: 3 to 6 mg/kg
[2]
  duration of action (antitussive): very prolonged duration of action

## C=CCOc1ccccc1OCC1SCCN1C(=O)CN (stereo not drawn)
[1]
  ED50: 3 to 30 mg/kg

## COc1ccccc1OCC1(COc2ccccc2OC)SCCN1C(=O)CSC(C)=O
[1]
  ED50: 230 mg/kg
[2]; dog cough test
  duration of action: very prolonged action
[2]; dog cough test, longer than codeine phosphate
  duration of action relative to codeine phosphate: 2-3 times
[2]; dog, oral, dose not given
  % inhibition of cough stimulus: 13%

## CCOC(=O)[C@@H]1CSC(COc2ccccc2OC)(COc2ccccc2OC)N1 [2,2-di(o-methoxyphenoxy)methyl-4-carbethoxythiazolidine]
[1]
  ED50: 116 mg/kg

## COc1ccccc1OCC1SCCN1C(=O)CSC(C)=O (stereo not drawn) [2-(o-methoxyphenoxy)methyl-3-acetylthioacetylthiazolidine]
[3]; [7]
  Fucose (mg/ml), AUC as a 100% compared to bronchitic controls: 151%
  Galactose (mg/ml), AUC as a 100% compared to bronchitic controls: 57%
  Mucus production (ml/kg), AUC as a 100% compared to bronchitic controls: 127%
  Phospholipids (mg/ml), AUC as a 100% compared to bronchitic controls: 37%
  Protein (mg/ml), AUC as a 100% compared to bronchitic controls: 78%
  Sialic acid (mg/ml), AUC as a 100% compared to bronchitic controls: 107%
  Viscosity (cps), AUC as a 100% compared to bronchitic controls: 59%
[3]
  mucus regulating activity (in words): mucus regulating properties
[4]
  antitussive properties (in words): good antitussive activity
  ED50: 77.1 mg/kg
[4]; listed as 3-Acetylthioacetyl-2-(o-methoxyphenoxymethyl)thiazolidine
  ED50: lower than 5 mg/kg
[2]; dog cough test
  duration of action: more favourable duration of action in comparison to codeine
[2]; dog, 20 mg/kg
  inhibition of the cough stimulus: 54.2%

## Cc1ccccc1OCC1SCCN1C(=O)Cn1ccnc1 (stereo not drawn) [2-tolyloxy-methyl-3-(imidazol-1'-yl)acetylthiazolidine]
[3]
  mucus regulating activity (in words): some mucus regulating action in the bronchitic rabbits, with a spectrum of action very close to that of carboxymethylcysteine
[4]
  antitussive properties (in words): not active in the cough tests
[2]; dog cough test
  antitussive properties (in words): not active in the cough tests

## COc1ccccc1OCC1SCCN1C(=O)C=Cc1cc(CN2CCOCC2)c(O)c(OC)c1 (stereo not drawn) [3-(3'-morpholinomethyl-4'-hydroxy-3'-methoxy-cinnamoyl)-2-(O-methoxyphenoxy)methylthiazolidine hydrochloride]
[5]
  activity relative to aminophylline in the resolution of bronchospasm: 3-6 times
[6]
  spasmolytic activity (in words): favourably compares with that of dihydroxypropyltheophylline
[6]; Cavia porcellus, contracted by methacoline, read-out: ED50 (relaxation of trachea smooth muscle strips)
  EC50: 190 µM

## COc1ccccc1OCC1SCCN1C(=O)CCNCCNCCO (stereo not drawn) [3-(3-(2-hydroxyethylamino)ethyl)aminopropanoyl-2-((O-methoxyphenoxy)methyl-thiazolidinebis maleate]
[1]
  ED50: 3 to 6 mg/kg
[2]
  duration of action (antitussive): very prolonged duration of action

## COc1ccccc1OCC1SCCN1C(=O)CNC(C)=O (stereo not drawn) [3-(N-acetylaminoacetyl)-2-(O-methoxyphenoxy)methyl-thiazolidine]
[1]
  ED50: 3 to 30 mg/kg
